From US20230000848A1, “METHODS OF TREATING NASH” (Gilead Sciences, Inc., priority 2021, published 2023)

Key:
liver cytokine levels [1] = assay: Liver cytokine levels by ELISA from liver lysates, GAN mouse model; format: in vivo, mice
Protocol: (§1) The effect of COT inhibitor Compound A, ACC inhibitor Compound B, Cenicriviroc (CVC), and the combination of Compound A and Compound B in the Gubra amylin NASH mouse model (GAN) was determined.

[2] = test system: Gubra amylin NASH (GAN) mouse model; assay: Picrosirius red staining (PSR) of liver tissue, GAN mouse model; format: in vivo, mice
Protocol: as §1
FIG. 8 plots liver fibrosis levels based on percent PSR for treatment group 1 (wt), vehicle (treatment group 2), COT inhibitor (Compound A, treatment group 3), ACC inhibitor (Compound B, treatment group 5), and combination of Compound A and Compound B (treatment group 4) in the Gubra amylin NASH (GAN) mouse model. Cenicriviroc (CVC) used as a control (treatment group 6).

[3] = test system: Gubra amylin NASH (GAN) mouse model; assay: Alpha-smooth muscle actin (aSMA) IHC on liver tissue, GAN mouse model; format: in vivo, mice; details: treatment group 3 (60 mg/kg BID) vs vehicle group 2, % area IHC
Protocol: as §1
FIG. 9 plots the […] (aSMA) levels from liver tissue of treatment group 1 (wt), vehicle (treatment group 2), COT inhibitor (Compound A, treatment group 3), ACC inhibitor (Compound B, treatment group 5), and combination of Compound A and Compound B (treatment group 4) in the Gubra amylin NASH (GAN) mouse model. Cenicriviroc (CVC) used as a control (treatment group 6). Alpha-smooth muscle actin (aSMA) levels were calculated from % area of alpha-SMA antibody staining on liver tissue (IHC).

[4] = test system: Gubra amylin NASH (GAN) mouse model; assay: Liver total cholesterol, GAN mouse model; format: in vivo, mice; details: treatment group 3 (60 mg/kg BID)
Protocol: as §1
FIG. 12 plots the liver total cholesterol levels for treatment group 1 (wt), vehicle (treatment group 2), COT inhibitor (Compound A, treatment group 3), ACC inhibitor (Compound B, treatment group 5), and combination of Compound A and Compound B (treatment group 4) in the Gubra amylin NASH (GAN) mouse model. Cenicriviroc (CVC) used as a control (treatment group 6). Total cholesterol levels were calculated from was measured using commercial kits (Roche Diagnostics) on the cobas c 501 autoanalyzer according to the manufacturer's instructions.

[5] = Whole body fat mass by ECHO MRI, GAN mouse model; format: in vivo, mice; details: 60 mg/kg PO BID, after 84 days of dosing
Protocol: as §1
FIG. 6 plots the percent fat mass of treatment group 1 (wt), vehicle (treatment group 2), COT inhibitor (Compound A, treatment group 3), ACC inhibitor (Compound B, treatment group 5), and combination of Compound A and Compound B (treatment group 4) in the Gubra amylin NASH (GAN) mouse model. Cenicriviroc (CVC) used as a control (treatment group 6). Fat mass was calculated by ECHO MRI.

[6] = test system: Choline Deficient High Fat Diet (CDHFD) model of fatty liver; assay: Picrosirius red staining (PSR) of liver tissue, rat choline deficient high fat diet (CDHFD) model; format: in vivo, Male Wistar Han Rats; details: for fibrosis as measured by PSR, decrease relative to vehicle: vs vehicle group 2
Protocol: Compound A and Compound B were studied in a Choline Deficient High Fat Diet (CDHFD) model as described below. Rats enrolled in this study were first fed a choline deficient high fat diet (CDHFD) for 42 days prior to test article administration Animals were then split into treatment groups 1-8 and test article was administered as detailed in Table 1 for 42 days. [table] Liver tissue obtained at the end of the study was subjected to picrosirius red staining (PSR) was assessed according to standard techniques. Liver hydroxyproline content was measured from cryopowdered liver tissue. Chloramine-T was used to oxidize the free hydroxyproline for the production of a pyrrole. Addition of Ehrlich's reagent results in the formation of a chromophore that can be measured at 550 nm on a spectramax plate reader. FIG. 2 plots the PSR (% area) for control (treatment group 1), start and end for the vehicle (treatment group 2), COT inhibitor (Compound A referred to as TPL2i, 100 mg/Kg QD (low dose), 100 mg/Kg BID (high dose)), ACC inhibitor (Compound B referred to as ACCi, 10 mg/kg QD), and coadministration of Compound B with Compound A (treatment groups 5 and 6). Data in FIG. 2 is based on all animals in the treatment group. In FIG. 2, a higher value for PSR % area is reflective of a higher level of fibrosis.

[7] = test system: Gubra amylin NASH (GAN) mouse model; assay: NAFLD activity score from H&E stained liver sections, GAN mouse model; format: in vivo, mice; details: 60 mg/kg BID
Protocol: The effect of COT inhibitor Compound A, ACC inhibitor Compound B, Cenicriviroc (CVC), and the combination of Compound A and Compound B in the Gubra amylin NASH mouse model (GAN) was determined. [table] FIG. 10 plots NAFLD activity score of Compound A (60 mg/kg BID), Compound B (10 mg/Kg QD), CVC (100 mg/Kg QD), and the combination Compound A and Compound B in from liver tissue the Gubra amylin NASH mouse model. CVC=Cenicriviroc, used as a control (100 mg/Kg QD). Individual components comprising the NAFLD score includes hepatocellular ballooning (FIG. 11A), lobular inflammation (FIG. 11B), and steatosis score (FIG. 11C). NAFLD activity score was determined by scoring of steatosis, inflammation, and hepatocyte ballooning from hematoxylin and eosin stained liver sections.

liver cytokine levels [8] = assay: Liver cytokine levels by ELISA from liver lysates, rat CDHFD model; format: in vivo, Male Wistar Han Rats; details: TPL2i = group 4, TPL2i+ACCi = group 6, vs vehicle
Protocol: (§2) Compound A and Compound B were studied in a Choline Deficient High Fat Diet (CDHFD) model as described below. Rats enrolled in this study were first fed a choline deficient high fat diet (CDHFD) for 42 days prior to test article administration Animals were then split into treatment groups 1-8 and test article was administered as detailed in Table 1 for 42 days.

[9] = Body weight, Gubra amylin NASH (GAN) mouse model; format: in vivo, mice; details: 60 mg/kg PO BID, after 84 days of dosing
Protocol: as §1
FIG. 5 plots the body weight of treatment group 1 (wt), vehicle (treatment group 2), COT inhibitor (Compound A, 60 mg/kg BID), ACC inhibitor (Compound B, 10 mg/Kg QD), and combination of Compound A and Compound B (treatment group 4) in the Gubra amylin NASH (GAN) mouse model. Cenicriviroc (CVC) used as a control (100 mg/Kg QD).

[10] = test system: Choline Deficient High Fat Diet (CDHFD) model of fatty liver; assay: Liver hydroxyproline (OH-P) content, rat CDHFD model; format: in vivo, Male Wistar Han Rats; details: 100 mg/Kg PO BID (treatment group 4), 42 days, vs vehicle group 2
Protocol: as §2
Liver tissue obtained at the end of the study was subjected to picrosirius red staining (PSR) was assessed according to standard techniques. Liver hydroxyproline content was measured from cryopowdered liver tissue. Chloramine-T was used to oxidize the free hydroxyproline for the production of a pyrrole. Addition of Ehrlich's reagent results in the formation of a chromophore that can be measured at 550 nm on a spectramax plate reader.
FIG. 3 plots liver hydroxyproline (OH—P) content from liver tissue for control (treatment group 1), start and end for the vehicle (treatment group 2), COT inhibitor (Compound A referred to as TPL2i, low dose=100 mg/Kg QD, high dose=100 mg/Kg BID), ACC inhibitor (Compound B referred to as ACCi, 10 mg/kg QD), and coadministration of Compound B with Compound A (treatment group 5 (TPL2i low dose+ACCi) and treatment group 6 (TPL2i high dose+ACCi)). Liver hydroxyproline (OH—P) content was calculated from liver tissue samples. […]

Structure (SMILES): CCCCOCCOc1ccc(-c2ccc3c(c2)/C=C(/C(=O)Nc2ccc([S@@+]([O-])Cc4cncn4CCC)cc2)CCCN3CC(C)C)cc1 [CVC, Cenicriviroc, reference compound]
- liver cytokine levels (liver cytokine levels [1]; treatment group 6 (100 mg/Kg)): Changes in cytokine levels were not observed

Structure (SMILES): Cc1nc(F)ccc1[C@H](Nc1cc(Cl)c2ncc(C#N)c(NCC(C)(C)C)c2c1)c1cn(C2(C(F)F)CC2)nn1 [Compound A]
- fibrosis measured by PSR, decrease compared to vehicle ([2]; 60 mg/kg PO BID (treatment group 3) vs vehicle group 2): 46%
- PSR relative to Compound B alone ([2]; BID treatment): reduced PSR
- Alpha-smooth muscle actin (aSMA) levels, reduction compared to vehicle [3]: 41%
- Liver total cholesterol reduction [4]: 40%
- liver IL-1β level (liver cytokine levels [1]; treatment group 3 vs vehicle): statistically significant decreases
- liver KC/GRO level (liver cytokine levels [1]; treatment group 3 vs vehicle): statistically significant decreases
- liver MCP-1 level (liver cytokine levels [1]; treatment group 3 vs vehicle): statistically significant decreases
- liver TNF-α level (liver cytokine levels [1]; treatment group 3 vs vehicle): statistically significant decreases
- fat mass decrease [5]: 31%
- fibrosis as measured by PSR, decrease relative to vehicle ([6]; 100 mg/Kg PO BID (treatment group 4, TPL2i high dose), 42 days): 55%
- fibrosis as measured by PSR, decrease relative to vehicle ([6]; 100 mg/Kg PO QD (treatment group 3, TPL2i low dose), 42 days): 41%
- liver fibrosis in PSR stained liver tissue (FIG. 1) compared to vehicle ([6]; treatment group 4 (100 mg/Kg BID) vs vehicle group 2): less liver fibrosis
- NAFLD activity score at the end of the study compared to vehicle [7]: more animals had a lower NAFLD activity score
- liver IL-1b level (liver cytokine levels [8]): statistically significant decreases
- liver IL-10 level (liver cytokine levels [8]): statistically significant decreases
- liver IL-18 level (liver cytokine levels [8]): statistically significant decreases
- liver MIP1-α level (liver cytokine levels [8]): statistically significant decreases
- body weight decrease [9]: 16%
- reduction in liver hydroxyproline compared to vehicle [10]: 38%

Structure (SMILES): COc1ccccc1[C@H](Cn1c(=O)n(C(C)(C)C(=O)O)c(=O)c2c(C)c(-c3ncco3)sc21)O[C@H]1CC[C@@H](O)CC1 [Compound B]
- PSR reduction ([6]; 10 mg/kg PO QD (treatment group 7), 42 days): 33%
